Legend:
Assay in all cases: Oncotest CellTiter-Blue cell viability assay, 72 hours
Type in all cases: cell-based, human
[1] = tested on: PRXF PC-3
Description: (§1) Further studies with varying drug concentrations on selected human cell lines, in most cases those studied in the NCI60 screen, were conducted by Oncotest GmbH laboratories, Freiburg, Germany; Oncotest is a division of Charles River Laboratories. The dissolution procedure for PBZ and the cell culture […] was 72 hours; anti-tumor activity was determined with the CellTiter-Blue® Cell Viability Assay, Promega, Mannheim, Germany. The 50% Inhibitory (IC50) concentrations were determined. The results are the average of duplicate assays. Paclitaxel was included as a reference compound to confirm the integrity of the assays. See S1 Appendix for further details.
(§2) “Cell lines were routinely passaged once or twice weekly and maintained in culture for up to 20 passages. Cells were grown at 37°C in a humidified atmosphere with 5% CO2 in RPMI 1640 medium (25 mM HEPES, with L-glutamine, #FG1385, Biochrom, Berlin, Germany) supplemented with 10% (v/v) fetal calf serum (Sigma, Taufkirchen, Germany) and 0.1 mg/mL gentamicin (Life Technologies, Karlsruhe, Germany).”

[2] = tested on: LYXF DLBC SU-DHL-1
Description: as §1, §2

[3] = tested on: MAXF T47D
Description: as §1, §2

[4] = tested on: MEXF UACC-257
Description: as §1, §2

[5] = PRXF PC-3, 10% FCS, study P495A
[6] = PRXF PC-3, 10% FCS, study P495B
[7] = LYXF SU-DHL-1, 1% FCS, study P495C
[8] = LYXF SU-DHL-1, 10% FCS, study P495B
[9] = MEXF UACC-257, 1% FCS, study P495C

## CC(COc1ccccc1)N(CCCl)Cc1ccccc1 (stereo not drawn) [PBZ, phenoxybenzamine]
[1]; 10 μM phenoxybenzamine, PC-3
  Percent cell growth in Oncotest screen with 10% FCS (72 hr incubation): 86%
[1]; Homo sapiens, PRXF PC-3 Prostate, 1% FCS
  IC50: 29.8 µM
[1]; PRXF PC-3, 1% FCS, study P495C
  Test/Control (%) at Drug Concentration [uM] 1,0E+00: 102%
  Test/Control (%) at Drug Concentration [uM] 1,0E+01: 100%
  Test/Control (%) at Drug Concentration [uM] 1,0E+02: 22%
  Test/Control (%) at Drug Concentration [uM] 3,2E+00: 105%
  Test/Control (%) at Drug Concentration [uM] 3,2E+01: 58%
[1]; [5]
  Test/Control (%) at Drug Concentration [uM] 1,0E+00: 86%
  Test/Control (%) at Drug Concentration [uM] 1,0E+01: 86%
  Test/Control (%) at Drug Concentration [uM] 1,0E+02: 52%
  Test/Control (%) at Drug Concentration [uM] 1,0E-01: 87%
  Test/Control (%) at Drug Concentration [uM] 1,0E-02: 83%
  Test/Control (%) at Drug Concentration [uM] 3,2E+00: 89%
  Test/Control (%) at Drug Concentration [uM] 3,2E+01: 82%
  Test/Control (%) at Drug Concentration [uM] 3,2E-01: 91%
  Test/Control (%) at Drug Concentration [uM] 3,2E-02: 87%
  Test/Control (%) at Drug Concentration [uM] 3,2E-03: 91%
[1]; [6]
  Test/Control (%) at Drug Concentration [uM] 1,0E+00: 89%
  Test/Control (%) at Drug Concentration [uM] 1,0E+01: 77%
  Test/Control (%) at Drug Concentration [uM] 1,0E+02: 49%
  Test/Control (%) at Drug Concentration [uM] 1,0E-01: 84%
  Test/Control (%) at Drug Concentration [uM] 1,0E-02: 88%
  Test/Control (%) at Drug Concentration [uM] 1,0E-03: 81%
  Test/Control (%) at Drug Concentration [uM] 3,2E+00: 92%
  Test/Control (%) at Drug Concentration [uM] 3,2E+01: 74%
[2]; Homo sapiens, LYXFDLBC SU-DHL-1 Lymphoma, 1% FCS
  IC50: 29.5 µM
[2]; [7]
  Test/Control (%) at Drug Concentration [uM] 1,0E+00: 97%
  Test/Control (%) at Drug Concentration [uM] 1,0E+01: 91%
  Test/Control (%) at Drug Concentration [uM] 1,0E+02: 7%
  Test/Control (%) at Drug Concentration [uM] 3,2E+00: 96%
  Test/Control (%) at Drug Concentration [uM] 3,2E+01: 45%
[2]; [8]
  Test/Control (%) at Drug Concentration [uM] 1,0E+00: 98%
  Test/Control (%) at Drug Concentration [uM] 1,0E+01: 100%
  Test/Control (%) at Drug Concentration [uM] 1,0E+02: 0%
  Test/Control (%) at Drug Concentration [uM] 1,0E-01: 100%
  Test/Control (%) at Drug Concentration [uM] 1,0E-02: 100%
  Test/Control (%) at Drug Concentration [uM] 1,0E-03: 100%
  Test/Control (%) at Drug Concentration [uM] 3,2E+00: 100%
  Test/Control (%) at Drug Concentration [uM] 3,2E+01: 94%
[3]; 10 μM phenoxybenzamine, T47D
  Percent cell growth in Oncotest screen with 10% FCS (72 hr incubation): 97%
[3]; Homo sapiens, MAXF T47D Mammary, 1% FCS
  IC50: 83.4 µM
[3]; MAX T47D, 1% FCS, study P495C
  Test/Control (%) at Drug Concentration [uM] 1,0E+00: 98%
  Test/Control (%) at Drug Concentration [uM] 1,0E+01: 96%
  Test/Control (%) at Drug Concentration [uM] 1,0E+02: 37%
  Test/Control (%) at Drug Concentration [uM] 3,2E+00: 99%
  Test/Control (%) at Drug Concentration [uM] 3,2E+01: 92%
[3]; MAX T47D, 10% FCS, study P495A
  Test/Control (%) at Drug Concentration [uM] 1,0E+00: 101%
  Test/Control (%) at Drug Concentration [uM] 1,0E+01: 97%
  Test/Control (%) at Drug Concentration [uM] 1,0E+02: 74%
  Test/Control (%) at Drug Concentration [uM] 1,0E-01: 97%
  Test/Control (%) at Drug Concentration [uM] 1,0E-02: 92%
  Test/Control (%) at Drug Concentration [uM] 3,2E+00: 102%
  Test/Control (%) at Drug Concentration [uM] 3,2E+01: 95%
  Test/Control (%) at Drug Concentration [uM] 3,2E-01: 97%
  Test/Control (%) at Drug Concentration [uM] 3,2E-02: 92%
  Test/Control (%) at Drug Concentration [uM] 3,2E-03: 97%
[3]; MAX T47D, 10% FCS, study P495B
  Test/Control (%) at Drug Concentration [uM] 1,0E+00: 80%
  Test/Control (%) at Drug Concentration [uM] 1,0E+01: 79%
  Test/Control (%) at Drug Concentration [uM] 1,0E+02: 57%
  Test/Control (%) at Drug Concentration [uM] 1,0E-01: 92%
  Test/Control (%) at Drug Concentration [uM] 1,0E-02: 93%
  Test/Control (%) at Drug Concentration [uM] 1,0E-03: 94%
  Test/Control (%) at Drug Concentration [uM] 3,2E+00: 79%
  Test/Control (%) at Drug Concentration [uM] 3,2E+01: 84%
[4]; 10 μM phenoxybenzamine, UACC-257
  Percent cell growth in Oncotest screen with 10% FCS (72 hr incubation): 107%
[4]; Homo sapiens, MEXF UACC-257 Melanoma, 1% FCS
  IC50: 49.8 µM
[4]; [9]
  Test/Control (%) at Drug Concentration [uM] 1,0E+00: 101%
  Test/Control (%) at Drug Concentration [uM] 1,0E+01: 107%
  Test/Control (%) at Drug Concentration [uM] 1,0E+02: 41%

— PMC5999115, “Anti-tumor activity of phenoxybenzamine and its inhibition of histone deacetylases” (PLoS ONE, 2018)
